In patent US9107852B2, “Uses of agonists of delta opioid receptor in cosmetic and dermocosmetic field” (Induchem Holding AG, priority 2012, dated 2015):

Columns and labels:
[1] = system: opioid receptor delta (DOR); assay: Expression of DOR in epidermis, tissue microarray immunohistochemical labeling; format: cell-based, human; conditions: RHE treated with PMA at 2 μg, compared to non-treated RHE
Protocol: The protein expression of the opioid receptor delta (DOR) was analyzed using a “tissue microarray” (TMA) composed of numerous skin-related cellular models in order to identify the best models for further studies.
Formaldehyde-fixed tissues were dehydrated in multiple baths with increasing concentration of ethanol and then embedded in “Paraplast X-tra” paraffin. The transversal sections were carried out using a microtome (5 μm thickness) and kept at room temperature until staining.
The sections were deparaffinized then the antigenic sites were retrieved using specific buffers (pH6 and pH9). The sections were then washed and incubated with hydrogen peroxide. After an additional washing step, the sections were incubated with the primary antibody (anti-DOR). […] After peroxidase-conjugated streptavidine and peroxidase substrate addition, nuclei were counter-stained with a solution of haematoxylin. The slices were washed in ultra-pure water and mounted in aqueous medium.
Sections were observed using a NIKON E400 microscope. Images were captured with a NIKON DS-Ri1 and processed with NIS-Elements 3.10 software.

delta2 opioid receptor = biological target: T1, delta2 opioid receptor (Mus musculus, UniProt P32300); assay: Agonist effect at the delta2 opioid receptor (DOP), cell impedance; format: cell-based; conditions: percent of control specific agonist response (DPDPE)
T1 construct: host or cells: unnamed cells 'bearing the delta2 opioid receptor'
Protocol: Frozen spinach leaves were thawed and disrupted in fine particles a blender. This juice was further treated with ultrasounds to disrupt cells and proteins were recovered by acidic precipitation. These proteins were then digested by several enzymes, including pepsin and papain. The hydrolysate was purified (ultrafiltration), fractionated and stored before testing. Meanwhile, synthetic peptides were ordered from a manufacturer. The peptides and the hydrolysates were tested on cells bearing the delta2 opioid receptor and cell impedance was measured to evaluate the binding activity of the tested compounds (Law and Loh, 1993).
The EC50 values (concentration producing a half-maximal specific response) and IC50 values (concentration causing a half-maximal inhibition of the control specific agonist response) were determined by non-linear regression analysis of the concentration-response curves generated with mean replicate values using Hill equation curve fitting (Y=D+[(A D)/(1+(C/C50)nH)], where Y=specific response, D=minimum specific response, A=maximum specific response, C=compound concentration, and C50=EC50 or IC50, and nH=slope factor).

[2] = system: opioid receptor delta (DOR); assay: Scoring of DOR1 expression in RHE stimulated with cytokines; format: cell-based, human; conditions: JAK inhibitor I tested at 10 μM
Protocol: In the present study, the effects of a peptide (YPLDLF, SEQ ID No 1) on the expression of opioid receptor delta (DOR) were researched on a reconstructed human epidermis (RHE) model under basal or stimulated conditions. More precisely, the RHE were stimulated by a mix of cytokines (IL-17+OSM+TNF-α) able to induce a strong inflammatory profile and a psoriatic phenotype in keratinocytes.
Reconstructed human epidermis (RHE) of 11 days old was prepared according to a derived method described by Poumay et al. (2004). These RHE were cultivated at 37° C. and 5% of CO2 in a specific maintenance medium.
The RHE treated under basal conditions were placed in assay medium containing or not (non-stimulated control) the peptide solutions and incubated for 54 hours. For inflammatory conditions, the RHE were placed in assay medium containing or not (stimulated control) the peptide solutions or the reference […] at 10 μM) and pre-incubated for 6 hours. The RHE were then stimulated with a mix of cytokines (IL-17+OSM+TNF-α at 3 ng/ml) and incubated for 48 hours. All experimental conditions were performed in n=3.
At the end of incubation, the supernatants were collected and the RHE were washed in phosphate buffered saline solution (PBS) for immunohistofluorescence analysis. […]

T1 sequence (P32300 whole entry): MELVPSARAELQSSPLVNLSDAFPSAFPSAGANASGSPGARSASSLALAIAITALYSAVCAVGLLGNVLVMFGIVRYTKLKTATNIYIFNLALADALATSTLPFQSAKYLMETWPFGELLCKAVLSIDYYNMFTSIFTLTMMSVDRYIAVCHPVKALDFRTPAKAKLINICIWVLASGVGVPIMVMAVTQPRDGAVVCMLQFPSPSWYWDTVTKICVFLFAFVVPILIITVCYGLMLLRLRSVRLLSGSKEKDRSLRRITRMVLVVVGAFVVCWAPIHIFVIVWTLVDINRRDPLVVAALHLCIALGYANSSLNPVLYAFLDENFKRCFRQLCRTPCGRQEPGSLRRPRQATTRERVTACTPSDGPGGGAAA

CCCCCCCCCCCCCC(=O)O[C@@H]1[C@@H](C)[C@@]2(O)[C@@H](C=C(CO)C[C@]3(O)C(=O)C(C)=C[C@@H]23)[C@@H]2C(C)(C)[C@]12OC(C)=O [PMA, Phorbol myristate acetate]
expression of DOR [1]: DOR was decreased after Phorbol myristate

D-Penicillamine(2,5)-enkephalin [DPDPE, reference compound]
A (Hill curve fit parameter) (delta2 opioid receptor): 0.0
D (Hill curve fit parameter) (delta2 opioid receptor): 95.8

JAK inhibitor I [reference compound]
inhibitory effect of the cytokine mix on OPRD1 expression [2]: reversed
